How the values were obtained:
[1] = tested on: patients présentant une artériopathie oblitérante périphérique aux stades cliniques IIa et IIb; experiment: Clinical trial: pain-free walking distance on treadmill before and after six weeks of isovolemic then hypervolemic hemodilution; format: in vivo
Excerpt: Cet exemple décrit un essai clinique effectué sur deux groupes A et B de 9 patients présentant une artériopathie oblitérante périphérique aux stades cliniques IIa et IIb. Tous ces patients présentaient des oblitérations d'un ou plusieurs jours ou des microangiopathies des membres inférieurs. En outre, la fluidité du sang de ces patients était trés limitée.
Les patients du groupe A (âge moyen: 60 ans) reçoivent un traitement combiné par dilution isovolémique et dilution hypervolémique au moyen de HES 200 (poids moléculaire 200.000) et de piracétam.
A cet effet, en 4 à 5 séances, on prélève chaque fois 500 ml de sang que l'on remplace par une perfusion isovolémique de 500 ml d'une solution aqueuse stérile à 10% de HES 200 contenant 12 g de piracétam. Le rapport en poids entre le HES 200 et le piracétam est donc de 4,1 : 1.
Entre chaque séance de perfusion isovolémique s'écoule un intervalle de 2 à 3 jours pendant lequel les patients reçoivent 12 g de piracétam par jour sous forme d'une suspension buvable.
Ensuite, on administre trois fois par semaine, en perfusion hypervolémique, 500 ml de la solution à 10% de HES 200 contenant 12 g de piracétam.
Le groupe B constitue le groupe témoin et les patients de ce groupe (âge moyen: 60 ans) reçoivent le même traitement, mais sans addition de piracétam.

[2] = tested on: patients présentant une artériopathie oblitérante périphérique aux stades cliniques IIa et IIb; experiment: Clinical trial: hemorheological parameters (blood fluidity, erythrocyte aggregation); format: in vivo; conditions: after treatment; piracétam given together with HES 200
Excerpt: Parallèlement au traitement, on a déterminé avant et après celui-ci la fluidité du sang des patients étudiés.
Cet exemple décrit un essai clinique effectué sur deux groupes A et B de 9 patients présentant une artériopathie oblitérante périphérique aux stades cliniques IIa et IIb. […] En outre, la fluidité du sang de ces patients était trés limitée.
Dans les deux groupes de patients, on a également suivi l'évolution de divers paramètres hémorhéologiques.

NC(=O)CN1CCCC1=O [piracétam, 2-oxo-1-pyrrolidineacétamide]
temps de claudication et douleurs ([1]; 12 g piracétam added to 500 ml of 10% HES 200): nette diminution
distance moyenne de marche sans douleur ([1]; 12 g piracétam added to 500 ml of 10% HES 200, versus the same without piracétam): augmente de manière trés significative
fluidité du sang [2]: la meilleure
